From ChEMBL document CHEMBL1122894, “Preparation of 20-(hydroxymethyl)-4-methyl-4-aza-2-oxa-5 alpha-pregnan-3-one as an inhibitor of testosterone 5 alpha-reductase” (J Med Chem, 1985)

Assays:
[1] = Compound was evaluated for in vitro inhibition of Testosterone 5 alpha-Reductase using substrate concentration 3 x 10e-7 M; design: species or system Rattus norvegicus
Rattus norvegicus = organism: Rattus norvegicus; assay: Comparative activity against Testosterone 5 alpha-Reductase evaluated by setting Ki of 7-(2-Hydroxy-1-methyl-ethyl)-1,4a,6a-trimethyl-hexadecahydro-indeno[5,4-f]quinolin-2-one at 1

| SMILES | Ki [1] [µM] | Relative activity (Rattus norvegicus) |
| --- | --- | --- |
| CC(CO)C1CCC2C3CC[C@H]4N(C)C(=O)OCC4(C)C3CCC12C (stereo not given in full) | 0.12 |  |
| CC(CO)C1CCC2C3CC[C@H]4N(C)C(=S)OCC4(C)C3CCC12C (stereo not given in full) | 0.4 |  |
| CCN(CC)C(=O)[C@H]1CC[C@H]2[C@@H]3CC[C@H]4N(C)C(=O)CC[C@]4(C)[C@H]3CC[C@]12C | 0.0073 |  |
| CC(CO)C1CCC2C3CC[C@H]4N(C)C(=O)CCC4(C)C3CCC12C (stereo not given in full) | 0.0038 | 1 |
